Results: PMC5159881 (Nature Communications, 2016)
Several values for one entry are separate records, joined by “and”; a condition that tells them apart may be missing. Equal entries are not always repeated.

Assays:
LNCaP-MDV3100-R cells = experiment: SRB cell growth assay, LNCaP-MDV3100-R; assay type: cell-based, human; conditions: 72 h, 20 μM
Protocol: Cell growth was determined by SRB assay.
the SRB assay (n = 5). The half maximal inhibitory concentration (IC50) was calculated using GraphPad Prism 5.0 (GraphPad, San Diego, CA).

VCaP xenografts = experiment: VCaP subcutaneous xenograft in BALB/c-nude mice; assay type: in vivo, mouse; conditions: 2 mg/kg AIL or 10 mg/kg MDV, i.p.
Protocol: (§1) (a–c) 22RV1 (a), LNCaP (b) and VCaP (c) cells suspended in 0.1 ml PBS (22RV1) or matrigel (LNCaP, VCaP) were injected into the right flank of BALB/c-nude mice. Androgen containing blocks were subcutaneously inserted into each mouse in the LNCaP and VCaP xenograft models. […] The control group was injected with DMSO. Tumour volume and the mouse body weight were measured twice per week.
(§2) BALB/c-nude mice (6–8-weekold, male) were purchased from the Sino-British Sippr/BK Lab Animal Co., Ltd (Shanghai, China) and maintained under pathogen-free conditions. The animal use protocol was approved by the Institutional Animal Care and Use Committee of East China Normal University. The 22RV1, LNCaP and VCaP xenograft tumour models were developed by injecting 3 × 10^6 22RV1 cells or 5 × 10^6 LNCaP or VCaP cells in suspension into the right flank of a BALB/c-nude mouse; cells were suspended in 100 μl PBS or 50% matrigel (LNCaP and VCaP), respectively. Specifically for LNCaP and VCaP cells, continuous release testosterone pellets (15 mg testosterone per pellet, Sigma-Aldrich) were implanted subcutaneously to stimulate the growth of LNCaP and VCaP xenografts. […] The tumour volume and mouse body weight were measured twice a week. The tumour volume was calculated using the following equation: tumour volume (V)=length × width × width × 0.52. […]
(§3) Tumor volume and the mouse body weight were measured once a week. […]

[1] = tested on: 22RV1-luc orthotopic xenografts; experiment: Orthotopic castration-resistant prostate cancer model (22RV1-luc, castrated mice); assay type: in vivo, mouse; conditions: i.p. once per day, 28 days, AIL 2 mg kg^−1 (95% CI 70–95%), MDV 10 mg kg^−1 (95% CI 0–36%)
Protocol: (d) Male BALB/c-nude mice were anaesthetized, and the dorsolateral prostate was injected with 22RV1-luc cells in matrigel. […] Tumours were imaged every week to determine local tumour growth and evidence of tumour cell dissemination. Representative images of three mice per group were illustrated (n=5). (e) After 28 days, mice were killed and local tumours and viscera of the mice were imaged to determine tumour growth and evidence of tumour cell dissemination.
For orthotopic castration-resistant prostate cancer xenografts, male BALB/c-nude mice (8–9 weeks of age) were anaesthetized using 150 mg kg^−1 2, 2, 2-tribromethanol plus 350 mg kg^−1 tert-amyl alcohol and then 5 × 10^5 22RV1-luc cells suspended in 30 μl 50% matrigel were surgically injected into the dorsolateral prostate lobes. One week after injection, the tumour-bearing mice were castrated and randomly assigned to three groups. […] Prostate tumour growth and local metastasis were monitored weekly using the IVIS Imaging System (Xenogen Corporation, Alameda, CA). Images and measurements of bioluminescent signals were acquired and analysed using Living Image and Xenogen software[52].

LNCaP cells = experiment: SRB cell growth assay, LNCaP; conditions: androgen-starved LNCaP, 0.1 nM R1881, 96 h; 10 μM BIC, 10 μM MDV, 0.1-0.4 μM AIL
c4-2b cells = experiment: SRB cell growth assay, c4-2b; conditions: R1881, 96 h, 10 μM
22RV1 cells = experiment: SRB cell growth assay, 22RV1; conditions: 22RV1, R1881, 96 h, 10 μM
PSA mRNA = experiment: Quantitative-PCR of PSA mRNA in 22RV1 cells; conditions: 12 h
Protocol: Total RNA was extracted using TRIzol (Takara, Japan) according to the manufacturer's instructions. One microgram of total RNA was used for complementary DNA synthesis using a cDNA reverse transcription kit (Takara, Japan). Real-time PCR was performed in triplicate using gene-specific primers on a Stratagene Mx3005P PCR system (Agilent Technologies) machine. The mRNA expression levels were normalized to β-actin expression or GAPDH.

HSP90 and HSP70 = experiment: Western blotting of HSP90 and HSP70 protein levels in LNCaP and 22RV1 cells; assay type: cell-based, human; conditions: 12 h
22RV1 xenografts = experiment: 22RV1 subcutaneous xenograft in BALB/c-nude mice; assay type: in vivo, mouse; conditions: 10 mg kg^−1 per day BIC or 2 mg kg^−1 per day AIL, i.p.
LNCaP xenografts = experiment: LNCaP subcutaneous xenograft in BALB/c-nude mice; assay type: in vivo, mouse; conditions: 10 mg kg^−1 per day BIC or 2 mg kg^−1 per day AIL, i.p.
Protocol: as §1, §2, §3

AR protein = experiment: Western blotting of AR protein level in PCa cell lines; assay type: cell-based, human; conditions: LNCaP, 22RV1, LNCaP-MDV3100-R and VCaP cell lines (CEL: LNCaP and 22RV1, 12 h)
Source text: Scale bars, 10 μm. […] Scale bars, 20 μm.

in vivo = conditions: rat; for half-life: plasma
Protocol: Pharmacokinetic studies in vivo[37] and CYP-associated metabolic studies in vitro[56] were performed using the method reported previously in our laboratory. […] The incubation system, sample preparation and chromatography conditions are as described previously.
A simple and sensitive method for the determination of AIL in plasma was developed, using high-performance liquid chromatography-tandem mass spectrometry (HPLC-MS/MS). Brusatol was used as an internal standard. […] The details of this HPLC-MS/MS method and sample preparation are described in our previous study.
The statistical analysis was performed by SPSS 22.0 software. The differences between control group and experimental groups were determined by one-way analysis of variance. Since treatment and time course was investigated, two-way analysis of variance followed by post hoc test was also applied. Data were expressed as mean and s.d., and P<0.05 was considered significant. Pharmacokinetic parameters were calculated by WinNonlin software version 5.2.1 (Pharsight Corporation, Mountain View, USA) based on noncompartmental analysis. […]
Pharmacokinetic study of ailanthone in rats
Sprague-Dawley rats (purchased from Shanghai SLAC laboratory animal Co. Ltd., Shanghai, China) were fasted for 12 h with free access to water prior to the pharmacokinetic study. The rats were randomized into two groups for oral administration (5mg/kg) and intravenous injection (1mg/kg). Blood samples were collected from the orbital plexus into heparinized centrifuge tubes at fifteen different time points between 5 min to 36 h for the oral administration group and nine time points between 5 min to 6 h for the intravenous one. The pharmacokinetic parameters were calculated by WinNonlin software version 5.2.1 based on noncompartmental analysis. Oral bioavailability was calculated as F (%) = AUC0-∞(p.o.) / AUC0-∞(i.v.) × Dose (i.v.) / Dose (p.o.). […]
Supplementary Figure 9C). […]

[2] = Sprague-Dawley, in vivo, iv, 1 mg/kg
[3] = Sprague-Dawley, in vivo, po, 5 mg/kg

For `CNC(=O)c1ccc(N2C(=S)N(c3ccc(C#N)c(C(F)(F)F)c3)C(=O)C2(C)C)cc1F` [MDV, MDV3100], the “cell growth (SRB)” value (LNCaP-MDV3100-R cells) was “totally resistant”, the response of xenografts (VCaP xenografts) was “still responded” and the “reduction of tumour volume” value [1] was 15%. For the same compound, the “cell growth (SRB)” value (LNCaP cells) was “effectively blocked cell growth”, the “cell growth (SRB)” value (c4-2b cells) was “could not significantly inhibit cell growth” and the “cell growth (SRB)” value (22RV1 cells) was “could not significantly inhibit cell growth”. The “PSA mRNA level in the presence of R1881” value (PSA mRNA; 22RV1, 10 nM R1881, 10 μM MDV or 0.2 μM AIL) was “decreased” and the “PSA mRNA level in the absence of R1881” value (PSA mRNA; 22RV1, no R1881, 10 μM MDV or 0.2 μM AIL) was “no effect”.
In the case of `C=CCNC1=C2C[C@@H](C)C[C@H](OC)[C@H](O)[C@@H](C)/C=C(\C)[C@H](OC(N)=O)[C@@H](OC)/C=C\C=C(/C)C(=O)NC(=CC1=O)C2=O` [17-AAG], the “HSP90 and HSP70 protein levels” value (HSP90 and HSP70) is reported as “induced upregulation”.
With `CC(O)(CS(=O)(=O)c1ccc(F)cc1)C(=O)Nc1ccc(C#N)c(C(F)(F)F)c1` (centres unmarked) [BIC, bicalutamide] the “cell growth (SRB)” value (LNCaP-MDV3100-R cells) was “totally resistant”, the tumour growth (22RV1 xenografts) was “resistant” and the tumour volume (LNCaP xenografts) was “significantly reduced the tumour volume”. The “cell growth (SRB)” value (LNCaP cells) was “effectively blocked cell growth”, the “cell growth (SRB)” value (c4-2b cells) was “could not significantly inhibit cell growth” and the “cell growth (SRB)” value (22RV1 cells) was “could not significantly inhibit cell growth”.
With `CC1=C(O)C(=O)C=C2C1=CC=C1[C@@]2(C)CC[C@@]2(C)[C@@H]3C[C@](C)(C(=O)O)CC[C@]3(C)CC[C@]12C` [CEL, Celastrol] the AR protein level (AR protein) was “downregulated the protein level of AR”.
In the case of `C=C1[C@@H](O)[C@]2(O)OC[C@]34[C@H]2[C@@]2(C)[C@H](O)C(=O)C=C(C)[C@@H]2C[C@H]3OC(=O)C[C@@H]14` [AIL, Ailanthone], the bioavailability (in vivo; Sprague-Dawley, in vivo) is reported as 25.7%, the AUC(0-inf) (in vivo; [2]) is reported as 1030 ng·h/mL and the AUC(0-t) (in vivo; [2]) is reported as 965 ng·h/mL. For the same compound, the C0 (in vivo; [2]) was 1650 ng/mL and 4.39 µM, the AUC(0-inf) (in vivo; [3]) was 1320 ng·h/mL and the AUC(0-t) (in vivo; [3]) was 1120 ng·h/mL. For the same compound, the Cmax (in vivo; [3]) was 87 ng/mL and 231 nM, the Tmax (in vivo; [3]) was 23.3 min and the half-life (in vivo; iv, i.v. 1 mg kg^−1, n=6, mean±s.d.) was 113 ± 39.6 min. For the same compound, the half-life (in vivo; po, p.o. 5 mg kg^−1, n=6, mean±s.d.) was 730 ± 156 min.
